# In patent US10864207B2, “Method of treating endothelial dysfunction” (Celagenex Research (India) Pvt. Ltd., priority 2019, dated 2020):
# Key:
# [1] = test system: PGI2 gene; experiment: PGI2 gene expression by semi-quantitative RT-PCR in H9C2 cells; assay type: cell-based, rat; settings: for PGI2 expression in % / Regulation in Terms of Folds PGI2: normalized to GAPDH; for Regulation in Terms of Folds PGI2: control = 1.00
# Experimental: […] […] [Hunter C. Champion et al. PNAS, 2005; 102:5:1661-1666].
# PGI2 were estimated for the test substance by gene expression method, where the level of expression of PGI2 expression on Rat Cardiomyocytes (H9C2) was determined with respect to untreated H9C2 cells.
# (§1) The H9C2 cells treated with drug were subjected to cell lysis by treating with Tri-extraction reagent. Chloroform was added, to isolate the total RNA from the sample and subjected for centrifugation. Out of the three distinct layers observed, upper layer was collected in fresh tube and equal volume of isopropanol was added and incubated at −20° C. for 10 mins. After the incubation followed by centrifugation, appropriate volume of ethanol was added to resuspend the pellet. After incubation and centrifugation, the pellet was air dried and appropriate volume of TAE buffer was added. The isolated total RNA was further used for cDNA synthesis. cDNA was synthesized by priming with oligo-dT primers followed by reverse transcriptase enzyme treatment according to manufacturers protocol (Thermoscienctific). The cDNA thus synthesized was taken up for PCR for the amplification of PGI2 and GAPDH/β-Actin (internal control).
# (§2) The mRNA expression levels of PGI2 were determined using semi-quantitative reverse transcriptase-polymerase chain reaction (RT-PCR). 50 μl of the reaction mixture was subjected to PCR for amplification of PGI2. cDNAs using specifically designed primers procured from Eurofins, India and GAPDH/β-Actin (House keeping genes) was co-amplified with each reaction as an internal control.
# (§3) PGI2: 95° C. for 5 min followed by 35 cycles of denaturation at 95° C. for 30 seconds, annealing Tm for 30 seconds and extension at 72° C. for 45 seconds. This was followed by final extension at 72° C. for 10 min. The primers used in this example for I strand synthesis and IInd strand synthesis are disclosed in priority Indian Patent Application No. 201921000093, filed Jan. 2, 2019, which is incorporated herein by reference.
# [2] = test system: eNOS gene; experiment: eNOS gene expression by semi-quantitative RT-PCR in H9C2 cells; assay type: cell-based, rat; settings: for eNOS expression in % / Regulation in Terms of Folds eNOS: normalized to β-Actin; for Regulation in Terms of Folds eNOS: control = 1.00
# Experimental: The test substances were evaluated for their gene expression activity in H9C2 (rat cardiomyocytes) and the concentration of test substances (G1, G2 and G3) taken for gene expression studies was 500 μg/ml. […] [Hunter C. Champion, et al. “PNAS, 2005; 102:5:1661-1666.]
# eNOS levels were estimated for the test substance by gene expression method, where the level of expression of eNOS expression on […] Cardiomyocytes (H9C2) was determined with respect to untreated H9C2 cells.
# as §1, with “test samples” for “drug”, “added” for “added,”, “manufacturer's” for “manufacturers”, “eNOS” for “PGI2”, “GAPDH” for “GAPDH/β-Actin”
# as §2, with “eNOS” for “PGI2”, “eNOS.” for “PGI2.”
# as §3, with “eNOS:” for “PGI2:”, “temperature” for “Tm”
SMILES,PGI2 gene expression increase as compared to the control ([1]; 500 μg/ml),PGI2 expression in % ([1]; 500 μg/ml),Regulation in Terms of Folds PGI2 ([1]; 500 μg/ml),eNOS expression in % ([2]; 500 μg/ml),Regulation in Terms of Folds eNOS ([2]; 500 μg/ml),eNOS gene over-expression as compared to the control ([2]; at tested doses (500 μg/ml)),PGI2 expression in % ([1]; 250 μg/ml),Regulation in Terms of Folds PGI2 ([1]; 250 μg/ml),eNOS expression in % ([2]; 250 μg/ml),Regulation in Terms of Folds eNOS ([2]; 250 μg/ml),eNOS gene up-regulation over control ([2]; standard sample (250 μg/ml))
"C[n+]1cccc(C(N)=O)c1 [Group G1, N^1-methyl nicotinamide chloride]",0.14 folds,14%,1.14 fold,21%,1.21 fold,0.21 folds,,,,,
"O=[N+]([O-])OCC(CO[N+](=O)[O-])O[N+](=O)[O-] [Nitroglycerin, reference compound]",,,,,,,29%,1.29 fold,56%,1.56 fold,0.56 fold
